Source: paper PMC3534288 (BMC Biophysics, 2012)
Like-named read-outs stand apart in the source and are kept apart here.

Legend:
[1] = Protonation of inhibitor sulfonamide group (ITC titration with acid, pKa); assay type: physicochemical
Protocol: Dissection of contribution from inhibitor protonation requires a set of experiments with pure inhibitor in the absence of protein to determine the pKa and the enthalpy of inhibitor protonation. The deprotonation pKa could be determined by pH titration as previously explained. The enthalpy of protonation is determined by titrating alkaline solution of the inhibitor with acid. […] Pure crystalline inhibitor is in protonated electrostatically neutral form. Therefore, 1.5 equivalent of NaOH is added to the inhibitor solution to make it deprotonated. […] This enthalpy of the second transition is the enthalpy of interest.

[2] = sulfonamide group, 25°C; cited from earlier work
[3] = biological target: CA II; settings: pH 7.0; read-out: observed Kis and Kds; cited from earlier work
[4] = biological target: T1, hCA XIII (Homo sapiens, UniProt Q8N1Q1); test: Intrinsic binding parameters by dissection of binding-linked protonation reactions; settings: deprotonated inhibitor anion to protonated zinc-bound water form, 25°C
T1 construct: made in house; host or cells: Escherichia coli
T1 sequence (Q8N1Q1 whole entry): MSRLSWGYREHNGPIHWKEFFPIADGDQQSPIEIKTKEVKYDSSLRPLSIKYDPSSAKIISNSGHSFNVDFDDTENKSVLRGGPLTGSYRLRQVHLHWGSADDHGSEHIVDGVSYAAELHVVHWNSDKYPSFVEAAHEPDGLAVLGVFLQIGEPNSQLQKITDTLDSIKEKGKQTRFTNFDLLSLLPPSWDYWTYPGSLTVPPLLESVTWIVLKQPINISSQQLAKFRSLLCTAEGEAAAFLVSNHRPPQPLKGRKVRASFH
From the text: Here we use the same formalism to dissect protonation reactions as previously described. The intrinsic binding constant is related to the observed binding constant and the fractions of active binding species:
(1) Kb=Kb_obs/fRSO2NH^−fCAZnH2O
Where the fractions deprotonated sulfonamide and protonated CA as a function of pH are:
(4) ΔbHintr=ΔbHobs−ninhΔb_proton_inhH−nCAΔb_proton_CAH+nΔb_proton_bufH
The intrinsic entropy of binding was obtained by subtracting Gibbs free energy from the enthalpy using standard thermodynamic equations. The intrinsic heat capacity of binding could be determined by carrying out all or part of ITC and TSA experiments at several temperatures.

[5] = biological target: T1, hCA XIII; test: Isothermal titration calorimetry (ITC) of inhibitor binding to hCA XIII, observed parameters
Protocol: ITC experiments were performed using a VP-ITC instrument (Microcal, Inc., GE-Healthcare, Northampton, MA, USA). For ligand-protein binding experiments 5–20 μM (usually 10) protein solution in the cell and 50–200 μM (usually 100) ligand solution in the syringe were used. A typical experiment consisted of 25–30 injections (usually 25), 10 μL each, with 3–5 min (usually 4 min) intervals between injections. Experiments were performed at different temperatures in various buffers containing 50 mM NaCl and 0.5-2% DMSO concentration. All experiments were repeated at least twice. For the determination of ligand binding at various pHs, the solution pH was carefully checked in the presence of protein and ligand, in the cell and syringe, respectively.

With CCOc1ccc2nc(S(N)(=O)=O)sc2c1 [EZA, ethoxzolamide] the Δb_protonCp ([1]; slope of protonation enthalpy versus temperature) was 88.7 J/(mol × K), the Ka ([1]; sulfonamide group, 25°C) was 10 nM and the TΔb_protonS ([1]; sulfonamide group, 25°C) was 3.87 kcal/mol. The Δb_protonG ([1]; sulfonamide group, 25°C) was -10.9 kcal/mol, the Δb_protonH ([1]; sulfonamide group, 25°C) was -7.05 kcal/mol and the Δb_protonS ([1]; sulfonamide group, 25°C) was 54.2 J/(mol × K). For the same compound, the pKa [2] was 8.0.

In the case of CS(N)(=O)=O [methanesulfonamide], the Kd [3] is given as 300 µM.

In the case of CC(=O)Nc1nnc(S(N)(=O)=O)s1 [AZM, acetazolamide], the Ka [2] is listed as 50 nM, the TΔb_protonS [2] is listed as 4.47 kcal/mol and the pKa [2] is listed as 7.30. The Δb_protonG [2] was -9.97 kcal/mol, the Δb_protonH [2] was -5.5 kcal/mol and the Δb_protonS [2] was 62.6 J/(mol × K). For the same compound, the TΔbSintr [4] was -2.13 kcal/mol, the ΔbGintr [4] was -9.92 kcal/mol and the ΔbHintr [4] was -12 kcal/mol. For the same compound, the ΔbSintr [4] was −29.8 J/(mol × K).

In the case of NS(=O)(=O)C(F)(F)F [TFMSA, trifluoromethanesulfonamide], the “net number of uptaken or released protons upon binding” value ([5]; pH 7.0, 25°C, slope of observed enthalpy versus buffer protonation enthalpy) is reported as “approximately equal to zero”, the “observed enthalpies of binding, span over pH and buffers” value ([5]; sodium phosphate and TRIS chloride buffers, 25°C, as a function of pH) is reported as −10 to −70 kJ/mol and the TΔbSintr [4] is reported as 2.44 kcal/mol. For the same compound, the ΔbGintr [4] was -10.5 kcal/mol, the ΔbHintr [4] was -8.01 kcal/mol and the ΔbSintr [4] was 34.3 J/(mol × K).
